Consider 2 compounds from US20200368315A1, “ANTIMICROBIAL PEPTIDES AND ADMIXTURES THEREOF SHOWING ANTIMICROBIAL ACTIVITY AGAINST GRAM-NEGATIVE PATHOGENS” (priority 2017, published 2020).

Converted amounts (≈) assume the structure as drawn. Like-named read-outs stand apart in the source and are kept apart here.

For one data set, the system named is A. baumannii LMG01041. Description: microbe, parasite or virus in culture. The note with it: for MIC: Acinetobacter baumannii. The data set is classed as cell-based, Acinetobacter baumannii. A digest of the protocol:
(§1)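 MIC = lowest concentration with no visible growth. Duplicate microdilution in MHB, 1/2 serial dilutions, 5*10^5 CFU/mL final inoculum; inoculum checked by plating a diluted growth-control well.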

A further data set relates to Gram-negative pathogens. The data set is classed as cell-based. The note with it: alone; over the 5 Gram-negative pathogens. Here is the method:
Escherichia coli, Klebsiella pneumoniae, Pseudomonas aeruginosa, Acinetobacter baumannii, Enterobacter aerogenes were grown in Luria-Bertani (LB) broth shaken (200 rpm) or on LB agar at 37° C. […] MICs tests were performed in duplicate by a liquid growth inhibition microdilution assays in sterilized polypropylene microtiter plates according to Wiegand and […] [27]. […] The suspension was diluted in a ratio of 1:100 using Mueller Hinton Broth (MHB) and the final inoculum is 5*10^5 CFU/mL. […] The antimicrobials were diluted serially by 1/2 one by one and 50 uL diluted bacterial suspension were added to each well to make the final volume to be 100 uL. Growth control was accomplished by remove 10 uL from well 11 and dilute 1000 times to plate 1/10 suspension on the solid medium. […] The number of colonies on the control agar plate should be around 50 to ensure the concentration of the inoculum and the effectiveness of the experiment. The lowest concentration of the antimicrobials that inhibits visible growth of the indicator is identified as MIC.

A further data set has as its system E. coli LMG15862. The data set is described as follows: microbe, parasite or virus in culture. Particulars: for MIC: Escherichia coli. The data set is classed as cell-based, Escherichia coli. A digest of the protocol:
as §1

For the next data set, the system named is E. aerogenes LMG 02094. Description: microbe, parasite or virus in culture. It counts as cell-based, Enterobacter aerogenes. Particulars: for MIC: Klebsiella aerogenes. A digest of the protocol: as §1
In data set [1] the test system is Pseudomonas aeruginosa B1954, clinical isolate. Description: microbe, parasite or virus in culture. Particulars: for MIC: Pseudomonas aeruginosa. On the procedure: (§2) Testing was performed according to CLSI (Clinical Laboratory Standards Institute) guidelines. Read out of the study was determination of MIC—minimal inhibitory concentration expressed in μg/mL.
(§3) Out of these PBS solutions, 76.8 μL was transferred to 1423.2 μL of MH media in deep well for testing compound alone. […] Out of these working solutions 100 μL were transferred to wells in the third column of 96-well assay plates. Assay plates were previously filled with 50 μL of MH media in all wells except for the wells in the third column.
(§4) Microorganisms used were all revived from skim milk storage at −70° C. by plating them on MH agar plates. The following day a single colony of each microorganism was again streaked on fresh agar plates. The next day, using direct colony suspension method, broth solutions that achieve turbidity equivalent to 0.5 McFarland standard for each microorganism were prepared. […] Out of these suspensions, actual inoculums were prepared by diluting them 100× with MH media giving final microorganism count of 2-8×10^5 CFU/mL. For each strain of microorganisms, 20 mL of these inoculum solutions were prepared. From the second to the twelfth column of 96-well plates, 50 μL of these solutions were transferred per well. To the first column, 50 μL per well of pure growth media was added. In this manner the first column was used as sterility control of media used, the second column was used as control of microorganism's growth and the rest of the plate was used for MIC determination. All plates were incubated for 16-24 h at 37° C.
(§5) MIC value was determined by visual inspection of bacterial growth within 96-well plates. The first column in which there was no visible growth of bacteria was determined as MIC value for peptide or combination tested in that particular row.

Data set [2] relates to Klebsiella pneumoniae B1945, clinical isolate. Description: microbe, parasite or virus in culture. Particulars: for MIC: Klebsiella pneumoniae. On the procedure:
as §2, §3, §4, §5

For data set [3], the system named is Escherichia coli B1927, clinical isolate. The data set is described as follows: microbe, parasite or virus in culture. Particulars: for MIC: Escherichia coli. On the procedure: as §2, §3, §4, §5
Data set [4] has as its system Acinetobacter baumannii B2026, clinical isolate. Description: microbe, parasite or virus in culture. Particulars: for MIC: Acinetobacter baumannii. On the procedure:
as §2, §3, §4, §5

In data set [5] the test system is Acinetobacter baumannii ATCC BAA-1605. Description: microbe, parasite or virus in culture. The note with it: for MIC: Acinetobacter baumannii. On the procedure:
as §2, §3, §4, §5

Data set [6] concerns Pseudomonas aeruginosa ATCC BAA-2108. The data set is described as follows: microbe, parasite or virus in culture. Particulars: for MIC: Pseudomonas aeruginosa. On the procedure: as §2, §3, §4, §5
The test system of data set [7] is Klebsiella pneumoniae ATCC BAA-2524. The data set is described as follows: microbe, parasite or virus in culture. The note with it: for MIC: Klebsiella pneumoniae. Here is the method: as §2, §3, §4, §5
For data set [8], the system named is Escherichia coli ATCC BAA-2452. The data set is described as follows: microbe, parasite or virus in culture. The note with it: for MIC: Escherichia coli. Here is the method: as §2, §3, §4, §5
The test system of the next data set is K. pneumoniae LMG20218. The data set is described as follows: microbe, parasite or virus in culture. It counts as cell-based, Klebsiella pneumoniae. Particulars: for MIC: Klebsiella pneumoniae. The gist of the method: as §1
The test system of data set [9] is human red blood cells (HRBc). The data set is described as follows: Hemolytic test. Here is the method:
Fresh human red blood cells (HRBc) were used for the hemolytic tests. After incubation with different concentrations of test compounds at 37° C. for 1 hour, the absorbance of the supernatant were measured.

In a further data set the test system is HEK293 cells. Description: Cell viability (ATP levels, CellTiter-Glo). The note with it: HEK293 cells. On the procedure:
ATP levels were measured by adding 50 μL of CellTiter-Glo reagent to each well and after 5 minutes of incubation luminescence was measured with SpectraMax i3.
96-well plates were seeded with HEK293 cells at concentration of 30,000 cells per well in 100 μL of DMEM growth media supplemented with 1% NEAA and 10% FBS. Border wells were filled with 100 μL of sterile PBS. The next day compounds were added to cells. Compounds were first 2× diluted in 96-well V-bottom plate in PBS. After that compounds were mixed with media in 96-deep-well plate for final concentrations. Growth media from 3 plates was aspirated and replaced with 100 μL of prepared compounds. Compounds were tested in duplicate. ATP levels were measured by adding 50 μL of CellTiter-Glo reagent to each well and after 5 minutes of incubation luminescence was measured with SpectraMax i3. […] The potential effects were then calculated and presented as IC50 values (μg/mL).

Take `CN[C@H](CC(C)C)C(=O)N[C@H]1C(=O)N[C@@H](CC(N)=O)C(=O)N[C@H]2C(=O)N[C@H]3C(=O)N[C@H](C(=O)N[C@H](C(=O)O)c4cc(O)cc(O)c4-c4cc3ccc4O)[C@H](O)c3ccc(c(Cl)c3)Oc3cc2cc(c3O[C@@H]2O[C@H](CO)[C@@H](O)[C@H](O)[C@H]2O[C@H]2C[C@](C)(N)[C@H](O)[C@H](C)O2)Oc2ccc(cc2Cl)[C@H]1O` [Vancomycin, reference compound]: the MIC was found to be 32 µM (≈ 46.4 µg/mL) in the data set on A. baumannii LMG01041 (LMG01041, read-out: MIC value); 32 µM (≈ 46.4 µg/mL) in the data set on A. baumannii LMG01041 (LMG01041, read-out: MIC value of antimicrobial compounds alone); 64 µM (≈ 92.8 µg/mL) in the data set with E. coli LMG15862 (LMG15862, read-out: MIC value); 64 µM (≈ 92.8 µg/mL) with E. coli LMG15862 (LMG15862, read-out: MIC value of antimicrobial compounds alone); 192 µM (≈ 278 µg/mL) with E. aerogenes LMG 02094 (LMG02094, read-out: MIC value); 192 µM (≈ 278 µg/mL) in the data set with E. aerogenes LMG 02094 (LMG02094, read-out: MIC value of antimicrobial compounds alone). Moreover, the MIC in data set [1] is 128 µg/mL; in [1] (read-out: MIC value), 88.3 µM; in [2] it was above 128 µg/mL; in data set [2] (read-out: MIC value), above 88.3 µM; in data set [3] it was 128 µg/mL; in data set [3] (read-out: MIC value) it was 88.3 µM. Also, the MIC in data set [4] was 32 µg/mL; in [4] (read-out: MIC value) it was 22.1 µM; in [5] (ATCCBAA1605), 64 µg/mL; in data set [5] (ATCCBAA1605, read-out: MIC value) it was 44.2 µM; in [6] (ATCCBAA2108) it was above 128 µg/mL; in [6] (ATCCBAA2108, read-out: MIC value), above 88.3 µM. For the same compound, the MIC is above 128 µg/mL in data set [7] (ATCCBAA2524); above 88.3 µM in data set [7] (ATCCBAA2524, read-out: MIC value); above 128 µg/mL in data set [8] (ATCCBAA2452); above 88.3 µM in data set [8] (ATCCBAA2452, read-out: MIC value); 128 µM (≈ 186 µg/mL) in the data set with K. pneumoniae LMG20218 (LMG20218, read-out: MIC value); 128 µM (≈ 186 µg/mL) in the data set with K. pneumoniae LMG20218 (LMG20218, read-out: MIC value of antimicrobial compounds alone). For the same compound, in the data set on Gram-negative pathogens, the “MIC / concentration needed to inhibit growth” value is “at least 32 μM”. For the same compound, in data set [9] (even at 500 μM), the “Hemolysis in the HRBc” value was “did not induce hemolysis”. Further, in data set [9] (human red blood cells, 37° C., 1 hour), the “HC50 (hemolytic activity)” value was above 500 µM. The “Effect on ATP levels” value in the data set with HEK293 cells (at concentrations tested) was “do not affect the ATP levels”.
For the compound `CC[C@@H](C)[C@@H](NC(=O)[C@@H](CCCNC(=N)N)NC(=O)[C@@H](CCCNC(=N)N)NC(=O)[C@@H](Cc1ccccc1)NC(=O)[C@@H](CC(C)C)NC(=O)[C@@H](CCCNC(=N)N)NC(=O)[C@H](N)CCCNC(=N)N)C(=O)N[C@H](CC(C)C)C(=O)N[C@H](CCCNC(=N)N)C(=O)N[C@H](Cc1c[nH]c2ccccc12)C(=O)N[C@H](CC(C)C)C(N)=O` [GNP-D6], the MIC value in the data set on A. baumannii LMG01041 (alone, A. baumannii LMG01041) worked out at 2 µM (≈ 3.17 µg/mL); against E. coli LMG15862 (alone, E. coli LMG15862), 2 µM (≈ 3.17 µg/mL); against E. aerogenes LMG 02094 (alone, E. aerogenes LMG 02094), 2 µM (≈ 3.17 µg/mL); in data set [1] (alone, MDR P. aeruginosa B1954) it was 2.53 µM; in data set [2] (alone, MDR K. pneumoniae B1945), 5.05 µM; in data set [3] (alone, MDR E. coli B1927) it was 1.27 µM. Besides, the MIC value worked out at 2.53 µM in data set [4] (alone, A. baumannii B2026, colistin resistant); 5.05 µM in [5] (alone, MDR A. baumannii ATCC BAA-1605); 5.05 µM in [6] (alone, MDR P. aeruginosa ATCC BAA-2108); 2.53 µM in [7] (alone, MDR K. pneumoniae ATCC BAA-2524); 1.27 µM in data set [8] (alone, MDR E. coli ATCC BAA-2452); 2 µM (≈ 3.17 µg/mL) against K. pneumoniae LMG20218 (alone, K. pneumoniae LMG20218). Besides, the “MIC / concentration needed to inhibit growth” value in the data set on Gram-negative pathogens was 2 µM (≈ 3.17 µg/mL). The same compound displayed a 50% haemolytic concentration (HC50) in data set [9] (HRBc, 37° C., 1 hour) of 168.9 µM. In addition, the “HC50 relative to the working concentration” value in data set [9] (working concentration 2 μM) came out at 80 fold. Further, the IC50 in the data set on HEK293 cells (read-out: IC50 (cell viability, ATP levels)) is 32.9 µM.
